# Measured values from the NIST ThermoML archive (doi:10.1021/je700725j).
# ± gives the expanded uncertainty stated by the source.
# Conditions: Liquid
vapor or sublimation pressure (273.15 K) [kPa],vapor or sublimation pressure (283.15 K) [kPa],vapor or sublimation pressure (293.15 K) [kPa],vapor or sublimation pressure (303.15 K) [kPa],vapor or sublimation pressure (313.15 K) [kPa],vapor or sublimation pressure (323.15 K) [kPa],Compound
620 ± 4,837 ± 5,1104 ± 7,1432 ± 9,1830 ± 11,2298 ± 14,"CC(F)(F)F [1,1,1-trifluoroethane]"
104 ± 2,150 ± 2,208 ± 2,284 ± 3,378 ± 3,494 ± 4,CCCC [butane]
